What follows are compounds tested against Rhodopsin (Bos taurus) (UniProt P02699) (assay: Agonist activity at bovine rhodopsin assessed as opsin mediated cognate G protein transducer activation by fluorescence assay).
Format: functional
Parameters: concentration or dose not given beside the values

Sequence of Rhodopsin (Bos taurus) (P02699 whole entry): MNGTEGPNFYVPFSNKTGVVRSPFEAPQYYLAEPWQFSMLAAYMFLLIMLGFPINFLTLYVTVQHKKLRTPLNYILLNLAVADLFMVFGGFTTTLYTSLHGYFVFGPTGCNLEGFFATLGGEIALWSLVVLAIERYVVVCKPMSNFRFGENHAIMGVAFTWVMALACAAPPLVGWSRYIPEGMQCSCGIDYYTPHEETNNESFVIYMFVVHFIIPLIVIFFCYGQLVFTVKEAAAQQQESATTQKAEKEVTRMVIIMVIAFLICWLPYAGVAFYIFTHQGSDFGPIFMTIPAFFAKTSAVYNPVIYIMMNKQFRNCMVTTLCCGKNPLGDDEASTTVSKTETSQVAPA

Activity [%]	SMILES
104	CC1=C(/C=C/C(C)=C\C=C\C(C)=C\C=O)C(C)(C)CCC1
53	CC1=C(/C=C/C(C)=C\C=C\C(=C\C=O)C2CC2)C(C)(C)CCC1
60	CC1=C(/C=C/C(=C\C=C\C(C)=C\C=O)C2CC2)C(C)(C)CCC1
83	CC1=C(/C=C/C(=C/C=C\C(C)=C\C=O)C2CC2)C(C)(C)CCC1
139	CC1=C(/C=C/C(C)=C\C=C\C(=C\C=O)C(C)C)C(C)(C)CCC1
100	CC1=C(/C=C/C(C)=C/C=C\C(C)=C\C=O)C(C)(C)CCC1
